By IC50 is commonly meant the concentration that inhibits the measured activity by half.

For the assay, the target named is human MGL from HeLa cells (Homo sapiens (Human), UniProt Q99685). The assay can be described thus: MGL in vitro activity assay ([glycerol-1,3-3H]-oleoyl glycerol hydrolysis, activated carbon filtration). It is filed as biochemical. To be noted: 300 nM [Glycerol-1,3-3H]-oleoyl glycerol, one hour. In outline: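 Endogenous human MGL in HeLa cells/homogenates incubated 1 h with test compounds and 300 nM [glycerol-1,3-3H]-oleoyl glycerol. Released 3H-glycerol passing an activated carbon filter counted as activity; screening at 10 μM compound, top IC50 concentration set empirically.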
Sequence of human MGL from HeLa cells (Q99685 whole entry): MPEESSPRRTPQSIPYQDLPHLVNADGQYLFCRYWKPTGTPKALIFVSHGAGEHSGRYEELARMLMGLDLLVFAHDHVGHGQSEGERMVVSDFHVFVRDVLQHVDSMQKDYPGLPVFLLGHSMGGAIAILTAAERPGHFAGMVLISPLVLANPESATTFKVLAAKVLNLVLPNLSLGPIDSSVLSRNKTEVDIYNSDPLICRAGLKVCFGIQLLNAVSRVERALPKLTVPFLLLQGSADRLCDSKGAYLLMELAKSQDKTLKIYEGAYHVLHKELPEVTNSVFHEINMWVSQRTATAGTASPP
`Cc1ccc(F)c(OC2CCC3(CC2)CN(C(=O)[C@H]2C[C@@](C)(O)C2)C3)n1` [Example 431, (7-((3-Fluoro-6-methylpyridin-2-yl)oxy)-2-azaspiro[3.5]nonan-2-yl)((1s,3s)-3-hydroxy-3-methylcyclobutyl)methanone] yielded an IC50 of 97 nM. The molecule `Cc1cnc(OC2CCC3(CC2)CN(C(=O)[C@H]2C[C@@](C)(O)C2)C3)c(F)c1` [Example 432, (7-((3-Fluoro-5-methylpyridin-2-yl)oxy)-2-azaspiro[3.5]nonan-2-yl)((1s,3s)-3-hydroxy-3-methylcyclobutyl)methanone] gave a half-maximal inhibitory concentration (IC50) of 71 nM.

Molecule `CCc1cnc(OC2CCC3(CC2)CN(C(=O)[C@H]2C[C@@](C)(O)C2)C3)c(F)c1` [Example 433, (7-((5-Ethyl-3-fluoropyridin-2-yl)oxy)-2-azaspiro[3.5]nonan-2-yl)((1s,3s)-3-hydroxy-3-methylcyclobutyl)methanone] displayed an IC50 of 14 nM.

Consider `Cc1nc(OC2CCC3(CC2)CN(C(=O)[C@H]2C[C@@](C)(O)C2)C3)ccc1Cl` [Example 434, (7-((5-Chloro-6-methylpyridin-2-yl)oxy)-2-azaspiro[3.5]nonan-2-yl)((1s,3s)-3-hydroxy-3-methylcyclobutyl)methanone], for which half-maximal inhibition (IC50) was put at 25 nM. The molecule `Cc1ccc(Cl)c(OC2CCC3(CC2)CN(C(=O)[C@H]2C[C@@](C)(O)C2)C3)n1` [Example 435, (7-((3-Chloro-6-methylpyridin-2-yl)oxy)-2-azaspiro[3.5]nonan-2-yl)((1s,3s)-3-hydroxy-3-methylcyclobutyl)methanone] registered an IC50 of 8.4 nM. As for `Cc1cnc(OC2CCC3(CC2)CN(C(=O)[C@H]2C[C@@](C)(O)C2)C3)c(Cl)c1` [Example 436, (7-((3-Chloro-5-methylpyridin-2-yl)oxy)-2-azaspiro[3.5]nonan-2-yl)((1s,3s)-3-hydroxy-3-methylcyclobutyl)methanone], inhibition was half-maximal at 13 nM (IC50). `Cc1cc(Cl)cnc1OC1CCC2(CC1)CN(C(=O)[C@H]1C[C@@](C)(O)C1)C2` [Example 437, (7-((5-Chloro-3-methylpyridin-2-yl)oxy)-2-azaspiro[3.5]nonan-2-yl)((1s,3s)-3-hydroxy-3-methylcyclobutyl)methanoneo]: the IC50 stood at 3.7 nM.

In turn, `Cc1nc(OC2CCC3(CC2)CN(C(=O)[C@H]2C[C@@](C)(O)C2)C3)ccc1C(F)F` [Example 438, (7-((5-(Difluoromethyl)-6-methylpyridin-2-yl)oxy)-2-azaspiro[3.5]nonan-2-yl)((1s,3s)-3-hydroxy-3-methylcyclobutyl)methanone] had an IC50 of 32 nM. Molecule `CCc1ccc(OC2CCC3(CC2)CN(C(=O)[C@H]2C[C@@](C)(O)C2)C3)nc1C(F)F` [Example 439, (7-((6-(Difluoromethyl)-5-ethylpyridin-2-yl)oxy)-2-azaspiro[3.5]nonan-2-yl)((1s,3s)-3-hydroxy-3-methylcyclobutyl)methanone] registered an IC50 of 1.8 nM.

With `CCc1nc(OC2CCC3(CC2)CN(C(=O)[C@H]2C[C@@](C)(O)C2)C3)ccc1C(F)F` [Example 440, (7-((5-(Difluoromethyl)-6-ethylpyridin-2-yl)oxy)-2-azaspiro[3.5]nonan-2-yl)((1s,3s)-3-hydroxy-3-methylcyclobutyl)methanone], it took 15 nM to reach half-maximal inhibition (IC50). As for `CCc1ccc(C(F)F)c(OC2CCC3(CC2)CN(C(=O)[C@H]2C[C@@](C)(O)C2)C3)n1` [Example 441, (7-((3-(Difluoromethyl)-6-ethylpyridin-2-yl)oxy)-2-azaspiro[3.5]nonan-2-yl)((1s,3s)-3-hydroxy-3-methylcyclobutyl)methanone], the figure is 14 nM; as for `Cc1cc(OC2CCC3(CC2)CN(C(=O)[C@H]2C[C@@](C)(O)C2)C3)ncc1C(F)(F)F` [Example 442, ((1s,3s)-3-Hydroxy-3-methylcyclobutyl)(7-((4-methyl-5-(trifluoromethyl)pyridin-2-yl)oxy)-2-azaspiro[3.5]nonan-2-yl)methanone], 9.6 nM; as for `Cc1ccc(C(F)(F)F)c(OC2CCC3(CC2)CN(C(=O)[C@H]2C[C@@](C)(O)C2)C3)n1` [Example 443, ((1s,3s)-3-Hydroxy-3-methylcyclobutyl)(7-((6-methyl-3-(trifluoromethyl)pyridin-2-yl)oxy)-2-azaspiro[3.5]nonan-2-yl)methanone], 17 nM. Molecule `Cc1cc(C(F)(F)F)cnc1OC1CCC2(CC1)CN(C(=O)[C@H]1C[C@@](C)(O)C1)C2` [Example 446, ((1s,3s)-3-Hydroxy-3-methylcyclobutyl)(7-((3-methyl-5-(trifluoromethyl)pyridin-2-yl)oxy)-2-azaspiro[3.5]nonan-2-yl)methanone] yielded an IC50 of 0.76 nM. The molecule `Cc1cc(C(F)(F)F)cc(OC2CCC3(CC2)CN(C(=O)[C@H]2C[C@@](C)(O)C2)C3)n1` [Example 447, ((1s,3s)-3-Hydroxy-3-methylcyclobutyl)(7-((6-methyl-4-(trifluoromethyl)pyridin-2-yl)oxy)-2-azaspiro[3.5]nonan-2-yl)methanone] showed an IC50 of 110 nM.

The molecule `Cc1nc(OC2CCC3(CC2)CN(C(=O)[C@H]2C[C@@](C)(O)C2)C3)ccc1C(F)(F)F` [Example 448, ((1s,3s)-3-Hydroxy-3-methylcyclobutyl)(7-((6-methyl-5-(trifluoromethyl)pyridin-2-yl)oxy)-2-azaspiro[3.5]nonan-2-yl)methanone] returned an IC50 of 2.4 nM.

Turning to `Cc1ccc(C(F)(F)F)nc1OC1CCC2(CC1)CN(C(=O)[C@H]1C[C@@](C)(O)C1)C2` [Example 449, ((1s,3s)-3-Hydroxy-3-methylcyclobutyl)(7-((3-methyl-6-(trifluoromethyl)pyridin-2-yl)oxy)-2-azaspiro[3.5]nonan-2-yl)methanone], it took 8.5 nM to reach half-maximal inhibition (IC50).

`CCc1ccc(OC2CCC3(CC2)CN(C(=O)[C@H]2C[C@@](C)(O)C2)C3)nc1C(F)(F)F` [Example 450, (7-((5-Ethyl-6-(trifluoromethyl)pyridin-2-yl)oxy)-2-azaspiro[3.5]nonan-2-yl)((1s,3s)-3-hydroxy-3-methylcyclobutyl)methanone] displayed an IC50 of 2.9 nM. In turn, `Cc1ccc(OC2CCC3(CC2)CN(C(=O)[C@H]2C[C@@](C)(O)C2)C3)nc1C(F)(F)F` [Example 451, ((1s,3s)-3-Hydroxy-3-methylcyclobutyl)(7-((5-methyl-6-(trifluoromethyl)pyridin-2-yl)oxy)-2-azaspiro[3.5]nonan-2-yl)methanone] had an IC50 of 8.2 nM. For the molecule `CC[C@]1(O)C[C@@H](C(=O)N2CC3(CCC(Oc4ccc(C)c(C(F)(F)F)n4)CC3)C2)C1` [Example 452, ((1r,3s)-3-Ethyl-3-hydroxycyclobutyl)(7-((5-methyl-6-(trifluoromethyl)pyridin-2-yl)oxy)-2-azaspiro[3.5]nonan-2-yl)methanone], the IC50 is 20 nM.

For `Cc1ccc(OC2CCC3(CC2)CN(C(=O)[C@H]2C[C@](O)(C(F)F)C2)C3)nc1C(F)(F)F` [Example 453, ((1s,3s)-3-(Difluoromethyl)-3-hydroxycyclobutyl)(7-((5-methyl-6-(trifluoromethyl)pyridin-2-yl)oxy)-2-azaspiro[3.5]nonan-2-yl)methanone], half-maximal inhibition (IC50) required 19 nM.

For the molecule `CCc1ccc(OC2CCC3(CC2)CN(C(=O)[C@H]2C[C@@](C)(O)C2)C3)nc1OC` [Example 454, (7-((5-Ethyl-6-methoxypyridin-2-yl)oxy)-2-azaspiro[3.5]nonan-2-yl)((1s,3s)-3-hydroxy-3-methylcyclobutyl)methanone], the midpoint of inhibition, the IC50, lay at 2.2 nM. Molecule `COc1nc(OC2CCC3(CC2)CN(C(=O)[C@H]2C[C@@](C)(O)C2)C3)ccc1C1CC1` [Example 455, (7-((5-Cyclopropyl-6-methoxypyridin-2-yl)oxy)-2-azaspiro[3.5]nonan-2-yl)((1s,3s)-3-hydroxy-3-methylcyclobutyl)methanone] registered an IC50 of 1.3 nM. `COc1nc(OC2CCC3(CC2)CN(C(=O)[C@H]2C[C@@](C)(O)C2)C3)ccc1C` [Example 456, ((1s,3s)-3-Hydroxy-3-methylcyclobutyl)(7-((6-methoxy-5-methylpyridin-2-yl)oxy)-2-azaspiro[3.5]nonan-2-yl)methanone] showed an IC50 of 19 nM. In turn, `C[C@]1(O)C[C@@H](C(=O)N2CC3(CCC(Oc4ncc(C(F)(F)F)cc4F)CC3)C2)C1` [Example 457, (7-((3-Fluoro-5-(trifluoromethyl)pyridin-2-yl)oxy)-2-azaspiro[3.5]nonan-2-yl)((1s,3s)-3-hydroxy-3-methylcyclobutyl)methanone] yielded an IC50 of 13 nM.

In turn, `COc1nc(OC2CCC3(CC2)CN(C(=O)[C@H]2C[C@@](C)(O)C2)C3)ccc1C(F)(F)F` [Example 458, ((1s,3s)-3-Hydroxy-3-methylcyclobutyl)(7-((6-methoxy-5-(trifluoromethyl)pyridin-2-yl)oxy)-2-azaspiro[3.5]nonan-2-yl)methanone] showed an IC50 of 0.55 nM. The value for `CCOc1nc(OC2CCC3(CC2)CN(C(=O)[C@H]2C[C@@](C)(O)C2)C3)ccc1C(F)(F)F` [Example 459, (7-((6-Ethoxy-5-(trifluoromethyl)pyridin-2-yl)oxy)-2-azaspiro[3.5]nonan-2-yl)((1s,3s)-3-hydroxy-3-methylcyclobutyl)methanone] was 0.22 nM; that for `COc1cc(OC2CCC3(CC2)CN(C(=O)[C@H]2C[C@@](C)(O)C2)C3)ncc1Cl` [Example 460, (7-((5-Chloro-4-methoxypyridin-2-yl)oxy)-2-azaspiro[3.5]nonan-2-yl)((1s,3s)-3-hydroxy-3-methylcyclobutyl)methanone] was 142 nM; that for `COc1nc(OC2CCC3(CC2)CN(C(=O)[C@H]2C[C@@](C)(O)C2)C3)ccc1Cl` [Example 461, (7-((5-Chloro-6-methoxypyridin-2-yl)oxy)-2-azaspiro[3.5]nonan-2-yl)((1s,3s)-3-hydroxy-3-methylcyclobutyl)methanone] was 6.1 nM. `COc1ccc(Cl)c(OC2CCC3(CC2)CN(C(=O)[C@H]2C[C@@](C)(O)C2)C3)n1` [Example 462, (7-((3-Chloro-6-methoxypyridin-2-yl)oxy)-2-azaspiro[3.5]nonan-2-yl)((1s,3s)-3-hydroxy-3-methylcyclobutyl)methanone] came in with an IC50 of 6.8 nM.

For the origin of these results see patent publication US11802111B2, “Cyclobutyl amide monoacylglycerol lipase modulators” (Janssen Pharmaceutica NV, priority 2020, dated 2023).
